Laboratory results as given in patent US20150105252A1, “SUBSTITUTED PYRAZOLES AS HERBICIDES” (E I DU PONT DE NEMOURS AND COMPANY, priority 2013, published 2015).

How the values were obtained:
[1] = system: corn; assay: Test C preemergence; assay type: in vivo, Zea mays; conditions: for Plant response rating (scale of 0 to 100), Corn: Preemergence; for Corn plant response rating / Plant response rating, Corn: preemergence; for Plant response rating, Corn: scale 0 to 100, 0 = no effect, 100 = complete control
How it was run: (§1)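 Pre- and postemergence greenhouse screen; vehicle was a non-phytotoxic solvent mix with surfactant. Preemergence: treatment applied right after sowing into loam and sand. Postemergence: treated at 1–4 leaves. Visual rating at 13–15 days, 100 = complete control.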

[2] = system: corn; assay: Test A preemergence; assay type: in vivo, Zea mays
How it was run: (§2)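 Ratings express plant response from 0 (no effect) to 100 (complete control), judged visually against untreated controls after approximately 10 days in the greenhouse. Preemergence applications were made as directed soil sprays onto seeded loam–sand mix, and postemergence applications onto 2–10 cm plants at one- to two-leaf stage.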

[3] = system: sedge, umbrella; assay: Test B flood; assay type: in vivo, Cyperus difformis; conditions: 250 g ai/ha, visual rating on 0 to 100 scale (0 no effect, 100 complete control), 13 to 15 days
How it was run: (§3)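 Each compound is applied to the floodwater of pots holding 2-leaf seedlings, water standing 3 cm over the soil throughout. Plants stay in a greenhouse 13 to 15 days before visual scoring against controls from 0 (no effect) to 100 (complete control).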

[4] = system: pigweed; assay: Test A preemergence; assay type: in vivo, Amaranthus retroflexus
How it was run: as §2

[5] = system: ducksalad; assay: Test B flood; assay type: in vivo, Heteranthera limosa; conditions: 250 g ai/ha, visual rating on 0 to 100 scale (0 no effect, 100 complete control), 13 to 15 days
How it was run: as §3

[6] = system: velvetleaf; assay: Test A preemergence; assay type: in vivo, Abutilon theophrasti
How it was run: as §2

[7] = system: morningglory; assay: Test C preemergence; assay type: in vivo, Ipomoea coccinea; conditions: for Morningglory plant response rating / Plant response rating, Morningglory: preemergence; for Plant response rating, Morningglory: scale 0 to 100, 0 = no effect, 100 = complete control
How it was run: as §1

[8] = system: blackgrass; assay: Test C postemergence; assay type: in vivo, Alopecurus myosuroides; conditions: for Blackgrass plant response rating: scale 0 to 100
How it was run: as §1

[9] = system: foxtail, giant; assay: Test A preemergence; assay type: in vivo, Setaria faberii
How it was run: as §2

[10] = system: galium; assay: Test C preemergence; assay type: in vivo, Galium aparine; conditions: for Plant response rating (scale of 0 to 100), Galium: Preemergence; for Galium plant response rating / Plant response rating, Galium: preemergence; for Plant response rating, Galium: scale 0 to 100, 0 = no effect, 100 = complete control
How it was run: as §1

[11] = system: galium; assay: Test C postemergence; assay type: in vivo, Galium aparine; conditions: for Galium plant response rating: scale 0 to 100
How it was run: as §1

[12] = system: wheat; assay: Test A postemergence; assay type: in vivo, Triticum aestivum
How it was run: as §2

[13] = system: barnyardgrass; assay: Test A preemergence; assay type: in vivo, Echinochloa crus-galli
How it was run: as §2

[14] = system: barnyardgrass; assay: Test C preemergence; assay type: in vivo, Echinochloa crus-galli
How it was run: as §1

[15] = system: oilseed rape; assay: Test C postemergence; assay type: in vivo, Brassica napus
Source text: Seeds of plant species selected from blackgrass (Alopecurus myosuroides), ryegrass, Italian (Italian ryegrass, Lolium multiflorum), wheat (winter wheat, Triticum aestivum), galium (catchweed bedstraw, Galium aparine), corn (Zea mays), crabgrass, large (large crabgrass, Digitaria sanguinalis), foxtail, giant (giant foxtail, Setaria faberii), johnsongrass (Sorghum halepense), lambsquarters (Chenopodium album), morningglory (Ipomoea coccinea), nutsedge, yellow (yellow nutsedge, Cyperus esculentus), pigweed (redroot pigweed, Amaranthus retroflexus), ragweed (common ragweed, Ambrosia elation), soybean (Glycine max), barnyardgrass (Echinochloa crus-galli), oilseed rape (Brassica napus), waterhemp (common waterhemp, Amaranthus rudis), oat, wild (wild oat, Avena fatua), kochia (Kochia scoparia), Surinam grass (Brachiaria decumbens), foxtail, green (green foxtail, Setaria viridis), goosegrass (Eleusine indica), bromegrass, downy (downy bromegrass, Bromus tectorum), nightshade (eastern black nightshade, Solanum ptycanthum), cocklebur (common cocklebur, Xanthium strumarium), cupgrass, woolly (woolly cupgrass, Eriochloa villosa), bermudagrass (Cynodon dactylon), sunflower, (common oilseed sunflower, Helianthus annuus), Russian thistle (Salsola kali), and velvetleaf (Abutilon theophrasti) were planted into a blend of loam soil and sand and treated preemergence with test chemicals formulated in a non-phytotoxic solvent mixture which included a surfactant.
At the same time, plants selected from these crop and weed species and also chickweed (common chickweed, Stellaria media), canarygrass (littleseed canarygrass, Phalaris minor), and deadnettle (henbit deadnettle, Lamium amplexicaule), were planted in pots containing Redi-Earth® planting medium (Scotts Company, 14111 Scottslawn Road, Marysville, Ohio 43041) comprising spaghnum peat moss, vermiculite, wetting agent and starter nutrients and treated with postemergence applications of test chemicals formulated in the same manner. Plants ranged in height from 2 to 18 cm (1- to 4-leaf stage) for postemergence treatments. Treated plants and controls were maintained in a greenhouse for 13 to 15 days, after which time all species were compared to controls and visually evaluated. Plant response ratings, summarized in Table C, are based on a scale of 0 to 100 where 0 is no effect and 100 is complete control. A dash (-) response means no test result.

[16] = 31 g ai/ha, scale 0 to 100 (0 no effect, 100 complete control), 13 to 15 days
[17] = 125 g ai/ha, scale 0 to 100, 0 is no effect, 100 is complete control
[18] = Preemergence, 1000 g ai/ha, 0 to 100 scale, 0 no effect, 100 complete control
[19] = postemergence, 250 g ai/ha, scale 0 to 100 (0 no effect, 100 complete control)
[20] = postemergence, 125 g ai/ha, scale 0 to 100, 0 no effect, 100 complete control
[21] = 31 g ai/ha, visual rating, scale 0 to 100 (0 no effect, 100 complete control), 13 to 15 days
[22] = 62 g ai/ha, scale 0 to 100 (0 no effect, 100 complete control), 13 to 15 days
[23] = preemergence, 62 g ai/ha, scale 0 to 100 (0 no effect, 100 complete control), 13 to 15 days
[24] = preemergence, 125 g ai/ha, visual injury, 0 to 100 scale, approx. 10 days
[25] = preemergence, 500 g ai/ha, visual injury after approx. 10 days, 0 to 100 scale (0 no effect, 100 complete control)
[26] = Postemergence, 31 g ai/ha, visually evaluated after 13 to 15 days
[27] = postemergence, 125 g ai/ha, about 10 days, visual rating on 0 to 100 scale (0 no effect, 100 complete control)
[28] = 250 g ai/ha, scale 0 to 100, 0 is no effect, 100 is complete control
[29] = preemergence, 125 g ai/ha, visual injury approx. 10 days after treatment

## Cc1cc(C(=O)NCC(F)(F)F)nn1Cc1ccnc(C(F)(F)F)c1 [Compound 74]
[1]; 250 g ai/ha
  Plant response rating (scale of 0 to 100), Corn: 98
[1]; [16]
  Corn plant response rating: 10
[1]; 62 g ai/ha, 13 to 15 days
  Plant response rating, Corn: 60
[1]; [17]
  Corn plant response rating: 75
[2]; [18]
  Corn plant response rating: 90
[3]
  Plant response rating, Sedge, Umbrella: 65
[4]; [18]
  Pigweed plant response rating: 100
[5]
  Plant response rating, Ducksalad: 75
[6]; [18]
  Velvetleaf plant response rating: 100
[7]; Preemergence, 250 g ai/ha
  Plant response rating (scale of 0 to 100), Morningglory: 100
[7]; [16]
  Morningglory plant response rating: 75
[7]; 62 g ai/ha, 13 to 15 days
  Plant response rating, Morningglory: 100
[7]; [17]
  Morningglory plant response rating: 100
[8]; Postemergence, 31 g ai/ha
  Blackgrass plant response rating: 0
[8]; postemergence, 62 g ai/ha
  Blackgrass plant response rating: 0
[8]; [19]
  Plant response rating, Blackgrass: 5
[8]; [20]
  Plant response rating, Blackgrass: 5
[9]; [18]
  Foxtail, Giant plant response rating: 100
[10]; 250 g ai/ha
  Plant response rating (scale of 0 to 100), Galium: 100
[10]; [16]
  Galium plant response rating: 85
[10]; 62 g ai/ha, 13 to 15 days
  Plant response rating, Galium: 100
[10]; [17]
  Galium plant response rating: 100
[11]; Postemergence, 31 g ai/ha
  Galium plant response rating: 60
[11]; postemergence, 62 g ai/ha
  Galium plant response rating: 60
[11]; [19]
  Plant response rating, Galium: 85
[11]; [20]
  Plant response rating, Galium: 80
[12]; Postemergence, 1000 g ai/ha, visual rating after approx. 10 days, 0 to 100 scale (0 no effect, 100 complete control)
  Wheat plant response rating: 90
[13]; [18]
  Barnyardgrass plant response rating: 100

## CCc1cc(-c2ccc(C(F)(F)F)cc2)nn1Cc1ccnc(C(F)(F)F)c1 [Compound 110]
[1]; 250 g ai/ha
  Plant response rating (scale of 0 to 100), Corn: 10
[1]; [21]
  Corn plant response rating: 5
[1]; [22]
  Corn plant response rating: 5
[1]; [17]
  Corn plant response rating: 5
[14]; Preemergence, 250 g ai/ha
  Plant response rating (scale of 0 to 100), Barnyardgrass: 90
[14]; preemergence, 31 g ai/ha, scale 0 to 100 (0 no effect, 100 complete control), 13 to 15 days
  Barnyardgrass plant response rating: 25
[14]; [23]
  Barnyardgrass plant response rating: 30
[14]; preemergence, 125 g ai/ha, scale 0 to 100, 0 is no effect, 100 is complete control
  Barnyardgrass plant response rating: 65
[2]; [24]
  Corn plant response rating: 80
[2]; [25]
  Corn plant response rating: 90
[3]
  Plant response rating, Sedge, Umbrella: 80
[4]; [24]
  Pigweed plant response rating: 100
[4]; [25]
  Pigweed plant response rating: 100
[5]
  Plant response rating, Ducksalad: 80
[6]; [24]
  Velvetleaf plant response rating: 90
[6]; [25]
  Velvetleaf plant response rating: 100
[8]; [26]
  Plant response rating (scale of 0 to 100 where 0 is no effect and 100 is complete control), Blackgrass: 30
[8]; postemergence, 62 g ai/ha
  Blackgrass plant response rating: 35
[8]; [19]
  Plant response rating, Blackgrass: 60
[8]; [20]
  Plant response rating, Blackgrass: 45
[9]; [24]
  Foxtail, Giant plant response rating: 100
[9]; [25]
  Foxtail, Giant plant response rating: 100
[10]; 250 g ai/ha
  Plant response rating (scale of 0 to 100), Galium: 100
[10]; [21]
  Galium plant response rating: 50
[10]; [22]
  Galium plant response rating: 90
[11]; [26]
  Plant response rating (scale of 0 to 100 where 0 is no effect and 100 is complete control), Galium: 60
[11]; postemergence, 62 g ai/ha
  Galium plant response rating: 60
[11]; [20]
  Plant response rating, Galium: 90
[12]; Postemergence, 500 g ai/ha, visual rating after approx. 10 days, 0 to 100 scale (0 no effect, 100 complete control)
  Wheat plant response rating: 90
[12]; [27]
  Wheat plant response rating: 80
[15]; [26]
  Plant response rating (scale of 0 to 100 where 0 is no effect and 100 is complete control), Oilseed Rape: 60
[15]; postemergence, 62 g ai/ha, scale 0 to 100
  Oilseed Rape plant response rating: 85
[15]; [19]
  Plant response rating, Oilseed Rape: 90
[15]; [20]
  Plant response rating, Oilseed Rape: 90
[13]; [24]
  Barnyardgrass plant response rating: 100
[13]; [25]
  Barnyardgrass plant response rating: 100

## O=C(NC1CC1)c1cc(CCF)n(Cc2ccnc(C(F)(F)F)c2)n1 [Compound 176]
[1]; [21]
  Corn plant response rating: 5
[1]; [22]
  Corn plant response rating: 5
[1]; 125 g ai/ha, 13 to 15 days
  Plant response rating, Corn: 90
[1]; [28]
  Corn plant response rating: 90
[14]; preemergence, 31 g ai/ha, visual rating, scale 0 to 100 (0 no effect, 100 complete control), 13 to 15 days
  Barnyardgrass plant response rating: 25
[14]; [23]
  Barnyardgrass plant response rating: 100
[14]; preemergence, 125 g ai/ha, 13 to 15 days, scale 0 to 100, 0 = no effect, 100 = complete control
  Plant response rating, Barnyardgrass: 100
[14]; preemergence, 250 g ai/ha, scale 0 to 100, 0 is no effect, 100 is complete control
  Barnyardgrass plant response rating: 100
[2]; [29]
  Corn plant response rating (0 to 100 scale): 10
[2]; [25]
  Corn plant response rating: 90
[3]
  Plant response rating, Sedge, Umbrella: 80
[4]; [29]
  Pigweed plant response rating (0 to 100 scale): 100
[4]; [25]
  Pigweed plant response rating: 100
[5]
  Plant response rating, Ducksalad: 100
[6]; [29]
  Velvetleaf plant response rating (0 to 100 scale): 50
[6]; [25]
  Velvetleaf plant response rating: 90
[7]; [21]
  Morningglory plant response rating: 65
[7]; [22]
  Morningglory plant response rating: 98
[7]; 125 g ai/ha, 13 to 15 days
  Plant response rating, Morningglory: 98
[7]; [28]
  Morningglory plant response rating: 100
[9]; [29]
  Foxtail, Giant plant response rating (0 to 100 scale): 90
[9]; [25]
  Foxtail, Giant plant response rating: 100
[10]; [21]
  Galium plant response rating: 85
[10]; [22]
  Galium plant response rating: 85
[10]; 125 g ai/ha, 13 to 15 days
  Plant response rating, Galium: 98
[10]; [28]
  Galium plant response rating: 100
[12]; Postemergence, 500 g ai/ha, 0 to 100 scale (0 no effect, 100 complete control)
  Wheat plant response rating: 60
[12]; [27]
  Wheat plant response rating: 10
[13]; [29]
  Barnyardgrass plant response rating (0 to 100 scale, 0 is no effect, 100 is complete control): 80
[13]; [25]
  Barnyardgrass plant response rating: 100
